Assay results: patent EP0641792A1, “1,2-Dithiole derivatives and therapeutic agents containing them” (MITSUI TOATSU CHEMICALS, Inc., priority 1993, dated 1995)

How the values were obtained:
[1] = Solubility in water (Test Example 1); type: physicochemical; details: 5% aqueous glucose solution, saline or isotonic
Protocol: (§1) Solubility in 5% aqueous glucose solution was measured.

[2] = tested on: peroxylipid; assay: Inhibitory action for formation of peroxylipid (Evaluation Example 1; MDA, thiobarbituric acid method); type: biochemical; details: rat brain homogenate, 37°C for 60 minutes; test compound 10⁻⁴ M; n=2
Protocol: (§2) Male SD rats of 7-10 week age were anesthetized with pentobarbital and then subjected to dehematization. Thereafter, their brains were enucleated. The brain tissues were homogenized with a phosphate buffer solution with ice-cooling. Each of the 5% homogenates was incubated at 37°C for 60 minutes to form malondialdehyde (MDA). The amount of MDA was determined by measuring the absorbance at 535 nm according to the thiobarbituric acid method. Using this MDA amount (a) and a control value (b) (a MDA amount when no test compound was added), the inhibition (%) for formation of peroxylipid, of test compound was calculated from the following formula. Inhibition (%) for formation of peroxylipid = [(b-a)/b]x100 [formula] Each test compound was added to the homogenate before the incubation.
(§3) Incidentally, the concentration of each test compound was 10⁻⁴ M, and the number of rats used for each test compound was n=2.

[3] = tested on: Male SD rats; assay: Inhibitory action for disappearance of enzyme in myocardial cells after ischemia and reperfusion (Evaluation Example 3); type: in vivo, rat; details: 1.0 mg/kg intravenously; ligation 20 minutes, reperfusion 2 hours; left ventricle; average value ± standard error
Protocol: Male SD rats of 7-12 week age were anesthetized with pentobarbital and subjected to thoracotomy under artificial respiration. The left anterior descending coronary artery of each rat was ligated for 20 minutes and then subjected to reperfusion for 2 hours. Then, the heart of each rat was enucleated and the left ventricle was separated. The left ventricle was homogenized to measure the activity of creatine phosphokinase (CPK) remaining in the ventricle. A test compound was intravenously administered 5 minutes before the obstruction of coronary artery. In Table 15 are shown the differences in CPK activity between non-ischemia territory and ischemia and reperfusion territory of left ventricle, of test compound and control.
In Table 15, CPK activity indicates (average value ± standard error), and n indicates the number of tested rats.

[4] = tested on: Male SD rats; assay: Inhibitory action for reperfusion arrhythmia (Evaluation Example 2; coronary artery ligation 5 minutes, reperfusion 10 minutes); type: in vivo, rat; details: 1.0 mg/kg intravenously 5 minutes before obstruction of coronary artery
Protocol: (§4) Male SD rats of 8-12 week age were anesthetized with pentobarbital and subjected to thoracotomy under artificial respiration. The left anterior descending coronary artery of each rat was ligated for 5 minutes and then subjected to reperfusion for 10 minutes. An electrocardiograph in standard bipolar limb lead II was recorded for each rat to examine the occurrence of ventricular arrhythmia. A test compound was intravenously administered 5 minutes before the obstruction of coronary artery. For comparison, the same evaluation was conducted also on the 5-(4-methoxy-3-sulfophenyl)-3H-1,2-dithiole-3-thione sodium salt described in Eur. J. Med. Chem. 15, 405 (1980). [drawing 93]

[5] = Solubility in water (Test Example 2); type: physicochemical; details: 5% aqueous glucose solution, saline or isotonic
Protocol: as §1

[6] = tested on: Male SD rats; assay: Inhibitory action for disappearance of enzyme in myocardial cells after ischemia and reperfusion (Evaluation Example 6); type: in vivo, rat; details: for Mortality (%) / CPK activity (U/mg protein) (Non-ischemia territory)-(ischemia and reperfusion territory): 1.0 mg/kg intravenously, ligation 20 minutes, reperfusion 2 hours; for CPK activity (U/mg protein) (Non-ischemia territory)-(ischemia and reperfusion territory): left ventricle, average value ± standard error
Protocol: Male SD rats of 7-12 week age were anesthetized with pentobarbital and subjected to thoracotomy under artificial respiration. The left anterior descending coronary artery of each rat was ligated for 20 minutes and then subjected to reperfusion for 2 hours. Then, the heart of each rat was enucleated and the left ventricle was separated. The left ventricle was homogenized to measure the activity of creatine phosphokinase (CPK) remaining in the ventricle. Each test compound was intravenously administered 5 minutes before the obstruction of coronary artery. For comparison, the same evaluation was conducted also on the 4-(4-methoxy-3-sulfophenyl)-5-phenyl-3H-1,2-dithiole-3-thione sodium salt described in Bull. […] Chim. […] In Table 18 are shown the differences in CPK activity between non-ischemia territory and ischemia and reperfusion territory of left ventricle, of test compounds and control.
In Table 18, CPK activity indicates (average value ± standard error), and n indicates the number of tested rats.

[7] = tested on: Male SD rats; assay: Inhibitory action of reperfusion arrhythmia (Evaluation Example 5; coronary artery ligation 5 minutes, reperfusion 10 minutes); type: in vivo, rat; details: 1.0 mg/kg intravenously 5 minutes before obstruction of coronary artery
Protocol: as §4, with “arrhythmia. Each” for “arrhythmia. A”, “[drawing 95]” for “[drawing 93]”

[8] = tested on: peroxylipid; assay: Inhibitory action for formation of peroxylipid (Evaluation Example 4; MDA, thiobarbituric acid method); type: biochemical; details: rat brain homogenate, 37°C for 60 minutes; test compound 10⁻⁴ M; n=2
Protocol: as §2, §3

Row | solubility [1] [mg/mL] | Compound | Inhibition (%) [2] [%] | Mortality (%) [6] [%] | CPK activity (U/mg protein) (Non-ischemia territory)-(ischemia and reperfusion territory) [6] | Mortality (%) [7] | VF incidence (VF rats)/(tested rats) (%) [7] | Inhibition (%) [8] [%] | other results
1 | ≥ 10 | CCOc1cc2c(cc1S(=O)(=O)[O-])-c1ssc(=S)c1CC2.[Na+] [Production Example 5, 4,5-dihydro-7-ethoxy-8-sulfo-3H-naphtho-[1,2-c]-1,2-dithiol-3-thione sodium salt] | 100 | – | – | – | – | – | –
2 | ≥ 10 | COc1cc2c(cc1S(=O)(=O)[O-])OCc1c-2ssc1=S.[Na+] [Production Example 12, 8-methoxy-7-sulfo-3H,4H-benzopyrano-[4,3-c]-1,2-dithiole-3-thione sodium salt] | 100 | – | – | – | – | – | –
3 | – | CCCCCCc1ssc(=S)c1Cc1ccc(OC)c(S(=O)(=O)[O-])c1.[Na+] [Production Example 26, 5-hexyl-4-(4-methoxy-3-sulfobenzyl)-3H-1,2-dithiole-3-thione sodium salt] | – | 33.3 | 0.70 ± 0.23 (n=9) U/mg protein | 2/6 (33.3) % | 3/6 (50.0) % | 100 | solubility [5]: ≥ 10 mg/mL
4 | – | O=S(=O)([O-])c1ccc(Cc2c(-c3ccccc3)ssc2=S)cc1.[Na+] [Production Example 39, 5-phenyl-4-(4-sulfobenzyl)-3H-1,2-dithiole-3-thione sodium salt] | – | 12.5 | 0.84 ± 0.18 (n=8) U/mg protein | 0/4 (0.0) % | 1/4 (25.0) % | 100 | –
5 | – | COc1ccc(-c2c(-c3ccc(C)cc3)ssc2=S)cc1S(=O)(=O)[O-].[Na+] [Production Example 34, 4-(4-methoxy-3-sulfophenyl)-5-(p-tolyl)-3H-1,2-dithiole-3-thione sodium salt] | – | 40.0 | 0.81 ± 0.43 (n=10) U/mg protein | 2/7 (28.6) % | 3/7 (42.9) % | 100 | solubility [5]: ≥ 10 mg/mL
6 | ≥ 10 | COc1cc2c(cc1S(=O)(=O)[O-])CCc1c-2ssc1=S.[Na+] [Production Example 3, 4,5-dihydro-8-methoxy-7-sulfo-3H-naphtho-[1,2-c]-1,2-dithiole-3-thione sodium salt] | 100 | – | – | – | – | – | –
7 | – | COc1ccc(-c2c(-c3ccccc3)ssc2=S)cc1S(=O)(=O)[O-].[Na+] [Compound in literature, 4-(4-methoxy-3-sulfophenyl)-5-phenyl-3H-1,2-dithiole-3-thione sodium salt, reference compound] | – | – | – | – | – | – | effect on disappearance of creatine phosphokinase from myocardial cells and on rat mortality ([6]; result in words, versus control): no significant effect
8 | ≥ 10 | O=S(=O)([O-])c1ccc2c(c1)-c1ssc(=S)c1CO2.[Na+] [Production Example 13, 8-sulfo-3H,4H-benzopyrano[4,3-c]-1,2-dithiole-3-thione sodium salt] | 100 | – | – | – | – | – | –

Row | Compound | solubility [1] [mg/mL] | Inhibition (%) [2] [%] | Mortality (%) [6] [%] | CPK activity (U/mg protein) (Non-ischemia territory)-(ischemia and reperfusion territory) [6] | Mortality (%) [7] | VF incidence (VF rats)/(tested rats) (%) [7] | Inhibition (%) [8] [%] | other results
9 | COc1cc2c(cc1S(=O)(=O)[O-])-c1ssc(=S)c1CC2.[Na+] [Production Example 4, 4,5-dihydro-7-methoxy-8-sulfo-3H-naphtho[1,2-c]-1,2-dithiole-3-thione sodium salt] | ≥ 10 | 100 | – | – | – | – | – | CPK activity (U/mg protein) (Non-ischemia territory)-(ischemia and reperfusion territory) [3]: 1.36 ± 0.34 (n=7) U/mg protein; Mortality (%) [4]: 2/5 (40.0) %; VF incidence (VF rats)/(tested rats) (%) [4]: 2/5 (40.0) %
